The target of assay [1] is T1, recombinant human Meningioma Expressed Antigen 5 (MGEA5), also referred to as O-GlcNAcase (OGA) (Homo sapiens, UniProt O60502).
T1 construct: Full length OGA enzyme was purchased at OriGene (cat #TP322411); purchased OriGene TP322411
T1 sequence (O60502 1-916): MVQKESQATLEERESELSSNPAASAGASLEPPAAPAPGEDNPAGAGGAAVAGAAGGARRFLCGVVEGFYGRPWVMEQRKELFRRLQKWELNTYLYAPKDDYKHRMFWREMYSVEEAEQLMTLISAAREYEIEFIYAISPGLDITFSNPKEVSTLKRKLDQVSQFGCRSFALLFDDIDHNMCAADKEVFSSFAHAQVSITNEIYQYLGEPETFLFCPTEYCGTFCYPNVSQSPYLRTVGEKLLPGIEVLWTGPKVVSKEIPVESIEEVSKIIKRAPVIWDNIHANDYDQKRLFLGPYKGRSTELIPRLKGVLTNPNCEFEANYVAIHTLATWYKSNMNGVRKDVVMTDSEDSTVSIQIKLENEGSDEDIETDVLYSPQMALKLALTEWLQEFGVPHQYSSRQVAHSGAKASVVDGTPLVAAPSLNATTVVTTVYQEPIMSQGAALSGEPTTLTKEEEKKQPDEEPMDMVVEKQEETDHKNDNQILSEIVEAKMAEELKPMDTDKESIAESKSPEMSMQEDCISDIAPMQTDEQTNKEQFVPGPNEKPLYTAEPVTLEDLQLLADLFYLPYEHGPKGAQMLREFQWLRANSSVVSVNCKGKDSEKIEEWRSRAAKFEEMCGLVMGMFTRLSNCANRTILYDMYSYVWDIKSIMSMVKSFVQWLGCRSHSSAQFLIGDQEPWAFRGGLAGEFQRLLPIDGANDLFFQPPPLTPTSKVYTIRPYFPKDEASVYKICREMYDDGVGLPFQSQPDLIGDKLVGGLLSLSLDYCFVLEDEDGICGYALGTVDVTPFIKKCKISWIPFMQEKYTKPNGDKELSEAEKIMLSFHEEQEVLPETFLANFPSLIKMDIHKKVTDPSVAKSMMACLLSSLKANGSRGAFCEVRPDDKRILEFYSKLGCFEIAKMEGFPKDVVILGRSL
Briefly: OGA biochemical assay (inhibition of FM-GlcNAc hydrolysis, fluorescence). The following applies: FM-GlcNAc substrate; for IC50: 6 h at room temperature, read-out: Enzymatic hOGA, pIC50 (converted); for Emax: read-out: Enzymatic Emax (%). An excerpt: The assay is based on the inhibition of the hydrolysis of fluorescein mono-β-D-N-Acetyl-Glucosamine (FM-GlcNAc) (Mariappa et al. 2015, Biochem J 470:255) by the recombinant human Meningioma Expressed Antigen 5 (MGEA5), also referred to as O-GlcNAcase (OGA). The hydrolysis FM-GlcNAc (Marker Gene technologies, cat #M1485) results in the formation of β-D-N-glucosamineacetate and fluorescein. The fluorescence of the latter can be measured at excitation wavelength 485 nm and emission wavelength 538 nm. An increase in enzyme activity results in an increase in fluorescence signal. Full length OGA enzyme was purchased at OriGene (cat #TP322411). The enzyme was stored in 25 mM Tris.HCl, pH 7.3, 100 mM glycine, 10% glycerol at −20° C. Thiamet G and GlcNAcStatin were tested as reference compounds (Yuzwa et al. 2008 Nature Chemical Biology 4:483; Yuzwa et al. 2012 Nature Chemical Biology 8:393). The assay was performed in 200 mM Citrate/phosphate buffer supplemented with 0.005% Tween-20. 35.6 g Na2HPO4 2 H2O (Sigma, #C0759) were dissolved in 1 L water to obtain a 200 mM solution. 19.2 g citric acid (Merck, #1.06580) was dissolved in 1 L water to obtain a 100 mM solution. pH of the sodium phosphate solution was adjusted with the citric acid solution to 7.2. The buffer to stop the reaction consists of a 500 mM Carbonate buffer, pH 11.0. 734 mg FM-GlcNAc were dissolved in 5.48 mL DMSO to obtain a 250 mM solution and was stored at −20° C. OGA was used at a 2 nM concentration and FM-GlcNAc at a 100 uM final concentration. Dilutions were prepared in assay buffer.
50 nl of a compound dissolved in DMSO was dispensed on Black Proxiplate™ 384 Plus Assay plates (Perkin Elmer, #6008269) and 3 μl fl-OGA enzyme mix added subsequently. Plates were pre-incubated for 60 min at room temperature and then 2 μl FM-GlcNAc substrate mix added. […] Plates were briefly centrifuged for 1 min at 1000 rpm and incubate at room temperature for 6 h. To stop the reaction 5 μl STOP buffer were added and plates centrifuge again 1 min at 1000 rpm. Fluorescence was quantified in the Thermo Scientific Fluoroskan Ascent or the PerkinElmer EnVision with excitation wavelength 485 nm and emission wavelength 538 nm.
For analysis a best-fit curve is fitted by a minimum sum of squares method. From this an IC50 value and Hill coefficient was obtained. High control (no inhibitor) and low control (saturating concentrations of standard inhibitor) were used to define the minimum and maximum values.

Assay [2] has as its target T2, OGA (Homo sapiens, UniProt O60502).
T2 construct: endogenous in cells; host or cells: HEK293 cells inducible for P301L mutant human Tau (isoform 2N4R)
T2 sequence (O60502 1-916): T1 sequence (O60502 1-916)
The assay is described as follows: OGA cellular assay (ICC detection of O-GlcNAcylated proteins in HEK293 cells inducible for P301L mutant human Tau). The format is cell-based. The following applies: for Emax: HEK293, HEK293 cells inducible for P301L mutant human Tau; for EC50: 6 hours incubation, ICC O-GlcNAcylation, read-out: Cellular hOGA, pEC50 (converted). On the procedure: HEK293 cells inducible for P301L mutant human Tau (isoform 2N4R) were established at Janssen. Thiamet-G was used for both plate validation (high control) and as reference compound (reference EC50 assay validation). OGA inhibition is evaluated through the immunocytochemical (ICC) detection of O-GlcNAcylated proteins by the use of a monoclonal antibody (CTD110.6; Cell Signaling, #9875) detecting O-GlcNAcylated residues as previously described (Dorfmueller et al. 2010 Chemistry & biology, 17:1250). Inhibition of OGA will result in an increase of O-GlcNAcylated protein levels resulting in an increased signal in the experiment. Cell nuclei are stained with Hoechst to give a cell culture quality control and a rough estimate of immediate compounds toxicity, if any. ICC pictures are imaged with a Perkin Elmer Opera Phenix plate microscope and quantified with the provided software Perkin Elmer Harmony 4.1.
Cells were propagated in DMEM high Glucose (Sigma, #D5796) following standard procedures. 2 days before the cell assay cells are split, counted and seeded in Poly-D-Lysine (PDL) coated 96-wells (Greiner, #655946) plate at a cell density of 12,000 cells per cm^2 (4,000 cells per well) in 100 μl of Assay Medium (Low Glucose medium is used to reduce basal levels of GlcNAcylation) (Park et al. 2014 The Journal of biological chemistry 289:13519). At the day of compound test medium from assay plates was removed and replenished with 90 μl of fresh Assay Medium. 10 μl of compounds at a 10 fold final concentration were added to the wells. Plates were centrifuged shortly before incubation in the cell incubator for 6 hours. DMSO concentration was set to 0.2%. Medium is discarded by applying vacuum. For staining of cells medium was removed and cells washed once with 100 μl D-PBS (Sigma, #D8537). From next step onwards unless other stated assay volume was always 50 μl and incubation was performed without agitation and at room temperature. Cells were fixed in 50 μl of a 4% paraformaldehyde (PFA, Alpha aesar, #043368) PBS solution for 15 minutes at room temperature. […] Before analysis samples were washed 2 times manually for 5 minutes in ICC base buffer.
Imaging is performed using Perkin Elmer Phenix Opera using a water 20× objective and recording 9 fields per well. Intensity readout at 488 nm is used as a measure of O-GlcNAcylation level of total proteins in wells. To assess potential toxicity of compounds nuclei were counted using the Hoechst staining. IC50-values are calculated using parametric non-linear regression model fitting. As a maximum inhibition Thiamet G at a 200 uM concentration is present on each plate. In addition, a concentration response of Thiamet G is calculated on each plate.

[3] abbreviates: maximum defined by Thiamet G at 200 uM.
The mark [4] stands for this setting: HEK293 cells inducible for P301L mutant human Tau.

In general, Emax refers to the greatest response seen or fitted, relative to the assay's reference. With `Cc1cc(C[C@@H]2CCN(C(C)c3nc4c(cc3F)OCCO4)C2)cc(C)n1` (mixture of isomers) [Product 79], the IC50 in assay [1] was 7.94 nM. Besides, the maximum response (Emax) in assay [1] (maximal effect) was 98%; in assay [2] (setting [3]), 85%. In addition, the EC50 in assay [2] (setting [4]) was 100 nM.

As to `Cc1cc(C[C@H]2CCN(C(C)c3cnc4c(c3)OCCN4)C2)cc(C)n1` (mixture of isomers) [Product 80], the IC50 in assay [1] was 39.8 nM. Further, the maximal response (Emax) in assay [1] (maximal effect) came to 101%; in assay [2] (setting [3]), 71%. Also, the EC50 in assay [2] (setting [4]) is 398 nM.

On to `COc1cc(C[C@H]2CCN(C(C)c3nc4c(cc3F)CCO4)C2)cc(C)n1` (mixture of isomers) [Product 83], for which, in assay [1], the IC50 was 5.01 nM. Moreover, the maximal effect (Emax) in assay [1] (maximal effect) turned out to be 102%; in assay [2] (setting [3]) it was 89%. The EC50 in assay [2] (setting [4]) is 31.6 nM.

For `COc1cc(C[C@H]2CCN(C(C)c3ccc4c(n3)OCCC4)C2)cc(C)n1` (mixture of isomers) [Product 86], the IC50 in assay [1] is 158 nM. Besides, the results for the Emax in assay [1] (maximal effect) and in assay [2] (setting [3]) were 101% and 50%, respectively. The EC50 in assay [2] (setting [4]) is 741 nM.

Regarding `COc1cc(C[C@@H]2CCN(C(C)c3nc4c(cc3F)OCCO4)C2)cc(C)n1` (mixture of isomers) [Product 90], the IC50 in assay [1] was 12.6 nM. In addition, the figures for the Emax in assay [1] (maximal effect) and in assay [2] (setting [3]) were 101% and 90%, respectively. Further, the EC50 in assay [2] (setting [4]) was 126 nM.

For `Cc1cc(CO[C@@H]2CCN(C(C)c3ccc4c(n3)OCCO4)C2)cc(C)n1` (mixture of isomers) [Product 115], the IC50 in assay [1] was 631 nM. The values for the maximal effect (Emax) in assay [1] (maximal effect) and in assay [2] (setting [3]) were 94% and 9%, respectively. Moreover, the EC50 in assay [2] (setting [4]) is over 1000 nM.

`Cc1cc(C[C@@H]2CCN(C(C)c3cnc4c(c3)OCCO4)C2)cc(C)n1` (mixture of isomers) [Product 116]: the IC50 in assay [1] was 158 nM. Further, the Emax stood at 97% in assay [1] (maximal effect) and 20% in assay [2] (setting [3]). In assay [2] (setting [4]), the EC50 is over 1000 nM.

With `Cc1cc(C[C@@H]2CCN(C(C)c3cc4c(cc3F)NCCO4)C2)cc(C)n1` (mixture of isomers) [Product 117], the IC50 in assay [1] was 15.8 nM. Besides, the values for the maximal effect (Emax) in assay [1] (maximal effect) and in assay [2] (setting [3]) were 99% and 60%, respectively. Besides, in assay [2] (setting [4]), the EC50 was 316 nM.

`Cc1cc(C[C@@H]2CCN(C(C)c3cnc4c(c3)OCCN4)C2)cc(C)n1` (mixture of isomers) [Product 118]: the IC50 in assay [1] was 31.6 nM. The values for the Emax in assay [1] (maximal effect) and in assay [2] (setting [3]) were 100% and 49%, respectively. In assay [2] (setting [4]), the EC50 was 631 nM.

Regarding `Cc1cc(OC[C@H]2CCN(C(C)c3nc4c(cc3F)OCCO4)C2)cc(C)n1` (mixture of isomers) [Product 119], in assay [1], the IC50 was 100 nM. Further, the results for the maximum response (Emax) in assay [1] (maximal effect) and in assay [2] (setting [3]) were 100% and 59%, respectively. For the same molecule, the EC50 in assay [2] (setting [4]) is 631 nM.

Turning to `Cc1cc(C[C@H]2CN(C(C)c3ccc4c(n3)OCCO4)C[C@@H]2C)cc(C)n1` (mixture of isomers) [Product 60], in assay [1], the IC50 is 79.4 nM. Besides, the results for the Emax in assay [1] (maximal effect) and in assay [2] (setting [3]) were 99% and 44%, respectively. Besides, the EC50 in assay [2] (setting [4]) was over 1000 nM.

Take `Cc1cc(C[C@H]2CN(C(C)c3ccc4c(n3)OCCO4)C[C@@H]2C)cc(C)n1` (mixture of isomers) [Product 61]: the IC50 in assay [1] was 126 nM. Besides, in assay [1] (maximal effect), the “Enzymatic Emax (%)” value is 97%. Besides, in assay [2] (setting [4]), the EC50 was 794 nM. Besides, the “Cellular Emax (%)” value in assay [2] (HEK293 cells inducible for P301L mutant human Tau, maximum defined by Thiamet G at 200 uM) amounted to 56%.

With `Cc1cc(O[C@@H]2CCN(C(C)c3ccc4c(n3)OCCO4)C2)cc(C)n1` (mixture of isomers) [Product 73], in assay [1], the IC50 was 79.4 nM. The maximal effect (Emax) in assay [1] (maximal effect) is 99%; in assay [2] (setting [3]) it was 33%. For the same molecule, in assay [2] (setting [4]), the EC50 is over 1000 nM.

Turning to `COc1cc(C[C@H]2CCN([C@@H](C)c3cc4c(cc3F)NCCO4)C2)cc(C)n1` (racemic) [Product 82], the IC50 in assay [1] is 10 nM. In addition, the Emax in assay [1] (maximal effect) turned out to be 101%; in assay [2] (setting [3]) it was 81%. Also, in assay [2] (setting [4]), the EC50 was 251 nM.

In the case of `Cc1cc(C[C@@H]2CCN([C@H](C)c3cc4c(cc3F)OCCO4)C2)cc(C)n1` [Product 44], in assay [1], the IC50 was 251 nM. The maximal response (Emax) in assay [1] (maximal effect) is 99%.

For `Cc1cc(OC[C@@H]2CCN(C(C)c3ccc4c(n3)OCCO4)C2)cc(C)n1` (stereo partly shown) [Product 46], the IC50 in assay [1] is 251 nM. Also, the maximal effect (Emax) in assay [1] (maximal effect) worked out at 97%.

`COc1cc(O[C@H]2CCN(C(C)c3ccc4c(n3)OCCO4)C2)cc(C)n1` (stereo partly shown) [Product 63]: the IC50 in assay [1] was 1000 nM. In addition, the maximal effect (Emax) in assay [1] (maximal effect) amounted to 95%.

Regarding `Cc1cc(OCC2(C)CCN(C(C)c3ccc4c(n3)OCCO4)C2)cc(C)n1` (stereo not shown) [Product 77], the IC50 in assay [1] is 794 nM. Moreover, the Emax in assay [1] (maximal effect) came to 94%.
